Article PMC12081876, “Identification of PTGR2 inhibitors as a new therapeutic strategy for diabetes and obesity” (EMBO Molecular Medicine, 2025)
Several values for one entry are separate records, joined by “and”; a condition that tells them apart may be missing. Equal values may be shown once.

Legend:
[1] = test system: HFHSD-fed obese C57BL6/J mice; test: Hepatic steatosis (H&E) and hepatic triglycerides content; format: in vivo, mouse; conditions: 100 mg/kg/day oral, vs vehicle
Procedure: Tissues were fixed in 4% paraformaldehyde and then embedded in paraffin before sectioning and staining. The stained sections were scanned and analyzed using a MIRAX viewer (http://www.zeiss.de/mirax) and Image J software (http://rsbwed.nih.gov/ij/).
Approximately 80 mg of liver tissue was homogenized in 1800 μl of chloroform/methanol (2/1). Then, 360 μl of H2O was added. The homogenates were centrifuged at 2000 rpm for 10 min. The lower 200-μl layer was added with 100 μl of chloroform with 4% Triton X-100 and dried in a chemical hood. The dried pellet was redissolved with 200 μl of H2O and was determined the triglyceride concentrations with Wako TG LabAssay kit (cat. no. 290-63701, Wako).

[2] = test system: F4/80-positive macrophages; test: F4/80 immunohistochemical stain of perigonadal fat; format: in vivo, mouse; conditions: 100 mg/kg/day oral, HFHSD-fed mice, vs vehicle
Procedure: Mice perigonadal fat were paraffin-embedded and the 4-µm tissue sections were cut from the paraffin blocks on the slides by Pathology core of the Institute of Biomedical Sciences, Academia Sinica. The slides were conducted immunochemistry staining using primary antibodies for F4/80 (1:200; cat#H0005972-M01, Abnova) and digitized using an Olympus BX51 microscope combined with an Olympus DP72 camera and CellSens Standard 1.14 software (Olympus, Germany).

phospho-Akt = test: Insulin signaling in vivo (phospho-Akt immunoblot); design: species or system mouse; conditions: 40 mg/kg/day ip, HFHSD-fed mice, vs vehicle
Procedure: To evaluate insulin signaling in vivo, mice were fasted overnight. Tissue was harvested 15 min after intraperitoneal insulin injection. The samples (perigonadal fat, inguinal fat, brown adipose tissue and liver) were extracted with RIPA buffer (50 mM Tris-HCl, pH 7.4, 2 mM ethylenediaminetetraacetic acid [EDTA]), 150 mM NaCl, 50 mM NaF, 1% Nonidet P-40, 1 mM phenylmethylsulfonyl fluoride [PMSF], 0.5% sodium deoxycholate, and 0.1% sodium dodecyl sulfate [SDS]) containing phosphatase inhibitor cocktail (cat. no. 04693132001, Roche) and homogenized. The homogenates were then centrifuged at 13,000 rpm for 10 min at 4 °C to remove debris. Samples were separated by SDS-polyacrylamide gel electrophoresis, transferred to polyvinylidene difluoride (PVDF) membrane, blocked with 3% BSA, and probed with anti-phospho-Akt antibody (cat. no. 4058, Cell Signaling) and anti-Akt antibody (cat. no. 9272, Cell Signaling), and then with HRP conjugated anti-rabbit IgG antibody (1:10,000; cat. no. GTX26721, GeneTex).

Myc-DDK-mPPARγ C313A = target: T1, Myc-DDK-mPPARγ C313A (Mus musculus, UniProt P37238, C313A); test: Reciprocal co-immunoprecipitation in HEK293T cells, mPPARγ C313A; format: binding, murine; conditions: 15-keto-PGE2 treated
T1 construct: host or cells: HEK293T
Procedure: (§1) HEK293T cells were transfected with murin PPARγ (mPPARγ) and mPPARγ C313A plasmids for immunoprecipitation, which are Myc-DDK-tagged (OriGene, USA). […] According to the manufacturer’s protocol, proteins were immunoprecipitated using Anti-FLAG® M2 Magnetic Beads (2.5 mg/ml; cat. no. F1804, Sigma-Aldrich). Subsequently, the eluted proteins were separated by SDS-PAGE and subjected to immunoblot analysis. Following separation by SDS-PAGE, proteins were stained with Coomassie blue and SYPRO-Ruby stain. The protein bands of interest were cut out for in-gel tryptic digestion followed by C18 Zip-Tip clean-up (Millipore, USA). For proteomic shotgun identifications, nanoLC-nanoESI-MS/MS analysis was performed on a nanoAcquity system (Waters, USA) connected to the LTQ Orbitrap Velos hybrid MS (Thermo Electron, USA) equipped with a PicoView nanospray interface (New Objective, USA). Samples were loaded onto a C18 BEH column (75 μm × 25 cm length, 130 Å, 1.7 μm particle size) (Waters, USA) and separated by a segmented gradient form in 60 min from 5% to 40% acetonitrile (with 0.1% formic acid) at a constant flow rate of 300 nL/min with a column temperature of 35 °C. The mass spectrometer was operated in the data-dependent mode. […] Protein identification and modification were analyzed using Mascot Daemon (Matrix Science Inc., Chicago). […]

murine PPARγ (mPPARγ) = target: T2, murine PPARγ (mPPARγ) (Mus musculus, UniProt P37238); test: Gal4-PPARγ/UAS-LUC reporter assay in HEK293T cells; format: cell-based; design: key to Gal4-PPARγ/UAS-LUC reporter activity, Fig 1B replicates: luciferase activity normalized to TK reporter signal
T2 construct: host or cells: HEK293T
Procedure: Briefly, HEK293T cells were seeded in 24-well plates at 1 × 10^5 cells/well. […] Luciferase activity was measured using Luc-Pair™ Duo-Luciferase HS Assay Kit (cat. no. LF600, Promega) and normalized with the TK reporter signal.

Myc-DDK-mPPARγ = target: T3, Myc-DDK-mPPARγ (Mus musculus, UniProt P37238); test: Reciprocal co-immunoprecipitation in HEK293T cells, wild-type mPPARγ; format: binding, murine; conditions: 15-keto-PGE2 treated
T3 construct: host or cells: HEK293T
Procedure: as §1

Compound	extent of hepatic steatosis [1]	hepatic triglycerides content [1]	F4/80-positive macrophages in perigonadal fat [2]	phospho-Akt after insulin injection (immunoblot) (phospho-Akt)	co-immunoprecipitation with 15-keto-PGE2-cysteine antibody, mPPARγ C313A (Myc-DDK-mPPARγ C313A)	Gal4-PPARγ/UAS-LUC reporter activity, Fig 1B replicates (murine PPARγ (mPPARγ); 15kPGE2 5μM)	Gal4-PPARγ/UAS-LUC reporter activity, Fig 1B replicates (murine PPARγ (mPPARγ); 15kPGE2 10μM)	Gal4-PPARγ/UAS-LUC reporter activity, Fig 1B replicates (murine PPARγ (mPPARγ); 15kPGE2 30μM)	transactivation activity of PPARγ (Gal4-PPARγ/UAS-LUC reporter) (murine PPARγ (mPPARγ); HEK293T cells)	co-immunoprecipitation with 15-keto-PGE2-cysteine antibody, wild-type mPPARγ (Myc-DDK-mPPARγ)
Cc1[nH]c2nc(C(C)N3CCN(c4ccccc4)CC3)nn2c(=O)c1Cc1ccc(F)cc1 (stereo not shown) [BPRPT0245]	significantly decreased	significantly decreased	fewer F4/80-positive macrophages							
CCCCCC(=O)/C=C/[C@H]1[C@H](O)CC(=O)[C@@H]1C/C=C\CCCC(=O)O [15-keto-PGE2, 15-keto-prostaglandin E2]				increased phospho-Akt in perigonadal fat, inguinal fat, brown adipose tissue, and liver	not in samples expressing mPPARγ with C313A mutation	2.161 and 2.101 and 1.961	2.283 and 3.108 and 3.049	5.273 and 6.22 and 5.349	enhanced the transactivation activity of PPARγ in a dose-dependent manner	A single band of PPARγ (57 kDa) was detected
